Consider 30 compounds from patent publication US20260306460A1, “COMPOSITION FOR REMOVING AND INHIBITING SENESCENT CELLS, AND USES THEREOF” (LIFECEUTIX CO., LTD., priority 2023, published 2026).

*1 amine or outer side, *2 acyl side, *3 side chain or, on linkers, in order; H or OH if unused. Where a SMILES comes first, the peptide text is derived from it. Bridges are numbered along the chain shown (N, C = ends). [ ]: non-standard residue; d: D form. The star is where a group is joined. X1 = CC[C@H](C)[C@@H](N[*:1])[C@@H](O)CC(=O)O[C@H](C(=O)[C@H](C)C(=O)[*:2])C(C)C; NMeY = CN[C@@H](Cc1ccc(O)cc1)C(=O)O; dNMeL = CN[C@H](CC(C)C)C(=O)O; Pyruvoyl = CC(=O)C(=O)*

One assay has as its system senescent cells. Kind of assay: Viability of senescent cells (CellTiter-Glo), Example 17, Table 13. As to conditions: Homo sapiens, read-out: Survival (%).
A further assay deals with senescent A549 cells. Kind of assay: Viability of senescent A549 cells (CellTiter-Glo), Example 18, Table 15. The note with it: Homo sapiens, A549, read-out: Survival (%). A general note: ATP-based viability assays read luminescence as a measure of living cells.

Description for senescent A549 cells: Senescence-induced cancer cells treated with doxorubicin were treated with the test compound at designated concentrations, and cell viability was measured using the CellTiter-Glo Luminescent Cell Viability Assay (Promega).
Description for senescent cells: Cells induced to undergo senescence by doxorubicin treatment were treated with test compound at designated concentrations and measured using the CellTiter-Glo Luminescent Cell Viability Assay (Promega).

In the case of `O=C1Nc2ccccc2/C1=C1/Nc2ccc(C(=O)NCC3CCN(C(=O)CCl)CC3)cc2C1=O` [LX-5328], in the assay on senescent cells, the viability at 1.1 µM turned out to be 54.3% and the viability at 10 µM came out at 2%. Also, in the assay on senescent A549 cells, the viability at 1.1 µM amounted to 62.7% and the viability at 10 µM was 0.4%.
On to `CC(C)(C)OC(=O)NC1CCN(c2ccc(-c3cnc4[nH]cc(C(=O)C(=O)NCCc5ccccn5)c4c3)cn2)CC1` [LX-5341], for which, in the assay with senescent cells, the viability at 1.1 µM stood at 99.1%, the viability at 10 µM was 48.5% and the viability at 30 µM was determined as 3.5%. Moreover, in the assay with senescent A549 cells, the viability at 1.1 µM came to 94.6%, the viability at 10 µM was 55.4% and the viability at 30 µM was determined as 13.7%.
For `C#Cc1nc(C(=O)N2[C@@H](CCCC)Cc3cc(C=C)ccc3[C@@H]2c2ccc(NC34CC5CC(CC(C5)C3)C4)cc2)cs1` [LX-5362], the viability at 1.1 µM with senescent cells was determined as 42.5%; in the assay with senescent A549 cells it was 61.8%.
As to `C[C@H]1Oc2cc(cnc2N)-c2c(nn(C)c2C#N)CN(C)C(=O)c2ccc(F)cc21` [LX-5449, Lorlatinib], in the assay with senescent cells, the viability at 1.1 µM came out at 89.1%, the viability at 10 µM amounted to 44.1% and the viability at 30 µM is 8.7%. In addition, in the assay with senescent A549 cells, the viability at 1.1 µM is 91.3%, the viability at 10 µM amounted to 44.3% and the viability at 30 µM came to 2.4%.
Regarding `NC(=O)c1ccc(-c2cc3c(NC4CCS(=O)(=O)CC4)cccc3n2CC(F)(F)F)cc1` [LX-5904], in the assay with senescent cells, the viability at 1.1 µM stood at 103%, the viability at 10 µM worked out at 25.9% and the viability at 30 µM was determined as 2.2%. Moreover, in the assay with senescent A549 cells, the viability at 1.1 µM turned out to be 95.4%, the viability at 10 µM came out at 45.2% and the viability at 30 µM came to 10.9%.
For `C=C(C#N)CNc1c(OC)ccc2ccc(-c3ccc(S(C)(=O)=O)cn3)cc12` [LX-5906], in the assay with senescent cells, the viability at 1.1 µM was found to be 97.2%, the viability at 10 µM is 30.7% and the viability at 30 µM is 0.4%. Besides, in the assay on senescent A549 cells, the viability at 1.1 µM was 98.7%, the viability at 10 µM is 41.5% and the viability at 30 µM was 5.9%.
Take `C=C(CN1Cc2c(ccc3ccc(-c4cc(NC(C)=O)cc(OC)c4)cc23)C1=O)C(N)=O` [LX-5907]: in the assay on senescent cells, the viability at 1.1 µM worked out at 95.5%, the viability at 10 µM turned out to be 19.5% and the viability at 30 µM came to 1.7%. In the assay on senescent A549 cells, the viability at 1.1 µM stood at 91.8%, the viability at 10 µM was 39.4% and the viability at 30 µM was 14.4%.
Take `NS(=O)(=O)OC[C@@H]1C[C@@H](n2ccc3c(N[C@H]4CCc5ccccc54)ncnc32)C[C@@H]1O` [LX-6202, Pevonedistat]: the viability at 1.1 µM in the assay on senescent cells is 1.5%; in the assay with senescent A549 cells it was 53.3%.
On to `COc1cc(Nc2ncc3c(n2)-c2ccc(Cl)cc2C(c2c(F)cccc2OC)=NC3)ccc1C(=O)O` [LX-6203, Alisertib], for which, in the assay with senescent cells, the viability at 1.1 µM was 75.1% and the viability at 10 µM was found to be 13.1%. In the assay on senescent A549 cells, the viability at 1.1 µM turned out to be 96.4%, the viability at 10 µM was 30.7% and the viability at 30 µM was found to be 2.1%.
For the compound `CCN(CCCOc1ccc2c(Nc3cc(CC(=O)Nc4cccc(F)c4)n[nH]3)ncnc2c1)CCOP(=O)(O)O` [LX-6205, Barasertib], the viability at 1.1 µM in the assay on senescent cells came out at 3.8%; with senescent A549 cells it was 57.4%.
With `CC[C@@H]1C(=O)N(C)c2cnc(Nc3ccc(C(=O)N[C@H]4CC[C@H](N5CCN(CC6CC6)CC5)CC4)cc3OC)nc2N1C(C)C` [LX-6207, Volasertib], in the assay with senescent cells, the viability at 1.1 µM was 68.7% and the viability at 10 µM turned out to be 8.6%. In the assay with senescent A549 cells, the viability at 1.1 µM amounted to 88.2%, the viability at 10 µM amounted to 41% and the viability at 30 µM turned out to be 9.4%.
On to `CC[C@H](C)[C@H]1NC(=O)[C@@H](NC(=O)[C@@H](CC(C)C)N(C)C(=O)[C@@H]2CCCN2C(=O)C(C)=O)[C@@H](C)OC(=O)[C@H](Cc2ccc(OC)cc2)N(C)C(=O)[C@@H]2CCCN2C(=O)[C@H](CC(C)C)NC(=O)[C@@H](C)C(=O)[C@H](C(C)C)OC(=O)C[C@@H]1O` [LX-6212, Plitidepsin] (Pyruvoyl-P[dNMeL]T[X1]LP[NMeY](Me); ester 3-C), for which the viability at 1.1 µM in the assay on senescent cells came out at 52.3%. In addition, in the assay on senescent A549 cells, the viability at 1.1 µM stood at 75.7% and the viability at 10 µM is 0.9%.
Consider `Cc1cccc2c1NC(=O)[C@@H](NC(=O)[C@H](CCC(F)(F)F)[C@H](CCC(F)(F)F)C(N)=O)N=C2c1cccc(F)c1` [LX-6514], for which, in the assay on senescent cells, the viability at 1.1 µM is 97.2%, the viability at 10 µM was found to be 63.3% and the viability at 30 µM was 2.7%. In addition, in the assay with senescent A549 cells, the viability at 1.1 µM turned out to be 107%, the viability at 10 µM turned out to be 51.2% and the viability at 30 µM worked out at 0.2%.
Regarding `CCNCC[C@H](O)CNCCCCNC[C@@H](O)CCNCC` [LX-6516, Ivospemin], in the assay with senescent cells, the viability at 1.1 µM turned out to be 93.3%, the viability at 10 µM worked out at 71.1% and the viability at 30 µM was 31.8%. In addition, in the assay with senescent A549 cells, the viability at 1.1 µM was 91.7%, the viability at 10 µM worked out at 79.6% and the viability at 30 µM was 27.6%.
For the compound `Nc1nc2nc[nH]c2c(=S)[nH]1` [LX-6530, Thioguanine], in the assay on senescent cells, the viability at 1.1 µM came to 106%, the viability at 10 µM worked out at 112% and the viability at 30 µM came to 46.1%. In the assay with senescent A549 cells, the viability at 1.1 µM was 97.9%, the viability at 10 µM stood at 83.9%, the viability at 30 µM was 61.1% and the viability at 90 µM stood at 10.3%.
Regarding `C[C@@]12C[C@@]3(O)O[C@@H](O1)[C@]1(COC(=O)c4ccccc4)[C@H]3C[C@@]12O[C@@H]1O[C@H](CO)[C@@H](O)[C@H](O)[C@H]1O` [LX-6804, Paeoniflorin], in the assay with senescent cells, the viability at 1.1 µM amounted to 87.5% and the viability at 10 µM is 28.5%. Besides, in the assay with senescent A549 cells, the viability at 1.1 µM is 78.8%, the viability at 10 µM is 40.8% and the viability at 30 µM was 8.4%.
For `Nc1cc(F)ccc1NC(=O)c1ccc(CNC(=O)/C=C/c2cccnc2)cc1` [LX-6809, Chidamide], in the assay with senescent cells, the viability at 1.1 µM stood at 87.5%, the viability at 10 µM is 53.3% and the viability at 30 µM stood at 17.8%. Moreover, in the assay on senescent A549 cells, the viability at 1.1 µM is 100%, the viability at 10 µM is 63.7% and the viability at 30 µM came out at 23.9%.
On to `COc1ccc(F)cc1C(=O)NCc1ccc(-c2nn([C@@H](C)C(F)(F)F)c(N)c2C(N)=O)cc1` [LX-6981, Pirtobrutinib], for which the viability at 1.1 µM was 0.2% in the assay with senescent cells and 43.1% in the assay with senescent A549 cells.
For `COc1ccc(CN2C3CC2CN(c2ccc(-c4cc(OCC(C)(C)O)cn5ncc(C#N)c45)cn2)C3)cn1` [LX-6988, Selpercatinib], in the assay with senescent cells, the viability at 1.1 µM came to 93.5%, the viability at 10 µM turned out to be 53.7% and the viability at 30 µM came to 3.7%. Also, in the assay on senescent A549 cells, the viability at 1.1 µM was found to be 98.2%, the viability at 10 µM came out at 46.3% and the viability at 30 µM turned out to be 5.7%.
As for `CCCCCCCC/C(=C\CCCCCCCC(=O)O)[N+](=O)[O-]` [LX-7111, 10-Nitrooleic acid], in the assay on senescent cells, the viability at 1.1 µM amounted to 78.1% and the viability at 10 µM worked out at 22%. Also, in the assay with senescent A549 cells, the viability at 1.1 µM worked out at 79.2%, the viability at 10 µM was found to be 43.7% and the viability at 30 µM is 0.8%.
As for `O=c1sn(-c2cccc3ccccc23)c(=O)n1Cc1ccccc1` [LX-7121, Tideglusib], in the assay with senescent cells, the viability at 1.1 µM came out at 94.7%, the viability at 10 µM was 57.9% and the viability at 30 µM worked out at 3.9%. In the assay with senescent A549 cells, the viability at 1.1 µM stood at 76.5%, the viability at 10 µM is 52.4% and the viability at 30 µM was 12.8%.
For `COc1ccc(C[C@@H](C)[C@@H](C)Cc2ccc(OC)c(OC)c2)cc1OC` [LX-7122, Terameprocol], in the assay with senescent cells, the viability at 1.1 µM was determined as 109%, the viability at 10 µM turned out to be 94.4% and the viability at 30 µM worked out at 39.3%. Also, in the assay on senescent A549 cells, the viability at 1.1 µM is 118%, the viability at 10 µM is 71.3% and the viability at 30 µM was 15.7%.
Turning to `Cn1cc(C2=C(c3cn(C4CCN(Cc5ccccn5)CC4)c4ccccc34)C(=O)NC2=O)c2ccccc21` [LX-7135, Enzastaurin], the results for the viability at 1.1 µM in the assay on senescent cells and in the assay with senescent A549 cells were 75.7% and 94.7%, respectively. In addition, in the assay with senescent A549 cells, the viability at 10 µM is 5.7%.
`Cc1ccccc1CN1C(=O)C2=C(CCN(Cc3ccccc3)C2)N2CCN=C12` [LX-7261, Dordaviprone]: the viability at 1.1 µM in the assay with senescent cells came to 63.7%; in the assay on senescent A549 cells, 52.4%.
As for `O=C1C2=C(CCN(Cc3ccccc3)C2)N2CCN=C2N1Cc1ccc(F)cc1F` [LX-7262], the viability at 1.1 µM worked out at 52.8% in the assay with senescent cells and 69.5% with senescent A549 cells.
On the same counts, the results for `Nc1ncn([C@H]2C[C@@H](O)[C@@H](CO)S2)c(=O)n1` [LX-7288, 4′-thio-5-aza-2′-deoxycytidine] are 41.8% and 48.3%.
As to `N=C(NC(=N)N1CCCC1)Nc1ccc(OC(F)(F)F)cc1` [LX-7403, Lixumistat], in the assay on senescent cells, the viability at 1.1 µM came out at 94.5%, the viability at 10 µM was determined as 72.3% and the viability at 30 µM worked out at 38.4%. Also, in the assay with senescent A549 cells, the viability at 1.1 µM came out at 99.5%, the viability at 10 µM turned out to be 52.7% and the viability at 30 µM was determined as 7.5%.
Regarding `C#CCC(Cc1cnc2nc(N)nc(N)c2n1)c1ccc(C(=O)N[C@@H](CCC(=O)O)C(=O)O)cc1` (stereo partly shown) [LX-7405, Pralatrexate], in the assay on senescent cells, the viability at 1.1 µM was found to be 100%, the viability at 10 µM was determined as 79% and the viability at 30 µM amounted to 40.6%. In the assay on senescent A549 cells, the viability at 1.1 µM came out at 94.7%, the viability at 10 µM was 78.4% and the viability at 30 µM stood at 12.1%.
As for `CS(=O)(=O)c1ccc(Oc2cc(F)cc(C#N)c2)c2c1[C@H](O)[C@H](F)[C@@H]2F` [LX-7451, Belzutifan], in the assay on senescent cells, the viability at 1.1 µM is 105% and the viability at 10 µM stood at 39.2%. Further, in the assay with senescent A549 cells, the viability at 1.1 µM was found to be 100%, the viability at 10 µM was 68.7% and the viability at 30 µM was 10.7%.
In the same order, the values of `N[C@@H](CCC(=O)N[C@@H](CS(=O)(=O)CCOP(=O)(N(CCCl)CCCl)N(CCCl)CCCl)C(=O)N[C@@H](C(=O)O)c1ccccc1)C(=O)O` [LX-7463, Canfosfamide] are 88.8%, 32.1%, 96.5%, 43.3% and 0.1%.
